Values after ≈ are worked out from the molar mass of the structure shown.
Key:
[1] = Cytotoxicity against human HUVEC cells assessed as metabolic activity measured after 24 hrs by cell-titer blue assay; type: toxicity, cell-based
Escherichia coli [2] = assay: Potentiation of imipenem-induced antibacterial activity against Escherichia coli T2359 expressing NDM-1 assessed as fold change in imipenem MIC at 32 mg/L by CLSI protocol based broth microdilution assay; type: functional
Pseudomonas aeruginosa [3] = assay: Potentiation of imipenem-induced antibacterial activity against Pseudomonas aeruginosa T2283 expressing VIM-2 assessed as imipenem MIC at 32 mg/L by CLSI protocol based broth microdilution assay; type: functional
Pseudomonas aeruginosa [4] = assay: Potentiation of imipenem-induced antibacterial activity against Pseudomonas aeruginosa T2229 expressing SPM-1 assessed as imipenem MIC at 32 mg/L by CLSI protocol based broth microdilution assay; type: functional
Pseudomonas aeruginosa [5] = assay: Potentiation of imipenem-induced antibacterial activity against Pseudomonas aeruginosa T2325 expressing IMP-1 assessed as fold change in imipenem MIC at 32 mg/L by CLSI protocol based broth microdilution assay; type: functional
Pseudomonas aeruginosa [6] = assay: Potentiation of imipenem-induced antibacterial activity against Pseudomonas aeruginosa T2282 expressing VIM-2 assessed as fold change in imipenem MIC at 32 mg/L by CLSI protocol based broth microdilution assay; type: functional
Escherichia coli [7] = assay: Bactericidal activity against Escherichia coli T2359 expressing VIM-1 assessed as killing rate at 0.5 XMIC measured after 24 hrs in presence of imipenem by time-kill assay relative to control; type: functional
HUVEC = assay: Cytotoxicity against HUVEC cells assessed as late apoptosis by analysing number of sub-diploid events at 0.03 to 100 ug/mL measured after 24 hrs by propidium iodide staining based flow cytometry analysis; type: toxicity, cell-based; conditions: human, dose 0.03-100 µg/ml
Citrobacter freundii = assay: Potentiation of imipenem-induced antibacterial activity against Citrobacter freundii T2354 expressing VIM-4 assessed as fold change in imipenem MIC at 32 mg/L by CLSI protocol based broth microdilution assay; type: functional
Bacteria = assay: Inhibition of recombinant IMP-1 (unknown origin) using fluorocillin as substrate at 10 uM incubated for 30 mins by fluorescence based assay

- MIC (Pseudomonas aeruginosa [3]): 0.001 mg/L
- MIC (Pseudomonas aeruginosa [4]): 0.032 mg/L
- inhibition (Bacteria): 93%
Structure (SMILES): N#CCN(Cc1ccccc1)Cc1cc([N+](=O)[O-])c2cccnc2c1O
- IC50 at 24 h [1]: 45 mg/L (≈ 129 µM)
- fold change (FC) (Escherichia coli [2]): 256
- fold change (FC) (Pseudomonas aeruginosa [5]): 32
- fold change (FC) (Pseudomonas aeruginosa [6]): 32
- Activity (Escherichia coli [7]): >99.9%
- Activity (HUVEC): Toxic
- fold change (FC) (Citrobacter freundii): 8
